ChEMBL document CHEMBL5550160, “Leveraging a rationally designed veliparib-based anilide eliciting anti-leukemic effects for the design of pH-responsive polymer nanoformulation” (Eur J Med Chem, 2024)
Activity calls are given as the source filed them. The rule behind the calls is not given here.

Key:
[1] = molecular target: T1, Histone deacetylase 8 (Homo sapiens) (UniProt Q9BY41); test: Inhibition of HDAC8 (unknown origin) assessed as residual activity at 4.12 x 10^-8M (reference value: 100%); settings: dose 4.12 10^-8M
T1 sequence (whole entry): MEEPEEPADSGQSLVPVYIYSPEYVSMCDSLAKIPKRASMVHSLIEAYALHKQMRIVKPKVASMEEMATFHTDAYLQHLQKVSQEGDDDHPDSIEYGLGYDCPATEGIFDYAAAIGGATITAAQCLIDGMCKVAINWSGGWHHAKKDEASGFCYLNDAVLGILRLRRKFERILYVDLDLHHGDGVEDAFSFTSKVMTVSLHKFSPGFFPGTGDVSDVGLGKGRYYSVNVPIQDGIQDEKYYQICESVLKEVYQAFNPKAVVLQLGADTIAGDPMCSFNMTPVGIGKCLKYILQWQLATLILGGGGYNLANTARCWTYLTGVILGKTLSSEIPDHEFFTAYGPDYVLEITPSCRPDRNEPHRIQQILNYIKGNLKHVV

[2] = molecular target: T2, Histone deacetylase 7 (Homo sapiens) (UniProt Q8WUI4); test: Inhibition of HDAC7 (unknown origin) assessed as residual activity at 1.1 x 10^-6M (reference value: 102.66%); settings: dose 1.1 10^-6M
T2 sequence (whole entry): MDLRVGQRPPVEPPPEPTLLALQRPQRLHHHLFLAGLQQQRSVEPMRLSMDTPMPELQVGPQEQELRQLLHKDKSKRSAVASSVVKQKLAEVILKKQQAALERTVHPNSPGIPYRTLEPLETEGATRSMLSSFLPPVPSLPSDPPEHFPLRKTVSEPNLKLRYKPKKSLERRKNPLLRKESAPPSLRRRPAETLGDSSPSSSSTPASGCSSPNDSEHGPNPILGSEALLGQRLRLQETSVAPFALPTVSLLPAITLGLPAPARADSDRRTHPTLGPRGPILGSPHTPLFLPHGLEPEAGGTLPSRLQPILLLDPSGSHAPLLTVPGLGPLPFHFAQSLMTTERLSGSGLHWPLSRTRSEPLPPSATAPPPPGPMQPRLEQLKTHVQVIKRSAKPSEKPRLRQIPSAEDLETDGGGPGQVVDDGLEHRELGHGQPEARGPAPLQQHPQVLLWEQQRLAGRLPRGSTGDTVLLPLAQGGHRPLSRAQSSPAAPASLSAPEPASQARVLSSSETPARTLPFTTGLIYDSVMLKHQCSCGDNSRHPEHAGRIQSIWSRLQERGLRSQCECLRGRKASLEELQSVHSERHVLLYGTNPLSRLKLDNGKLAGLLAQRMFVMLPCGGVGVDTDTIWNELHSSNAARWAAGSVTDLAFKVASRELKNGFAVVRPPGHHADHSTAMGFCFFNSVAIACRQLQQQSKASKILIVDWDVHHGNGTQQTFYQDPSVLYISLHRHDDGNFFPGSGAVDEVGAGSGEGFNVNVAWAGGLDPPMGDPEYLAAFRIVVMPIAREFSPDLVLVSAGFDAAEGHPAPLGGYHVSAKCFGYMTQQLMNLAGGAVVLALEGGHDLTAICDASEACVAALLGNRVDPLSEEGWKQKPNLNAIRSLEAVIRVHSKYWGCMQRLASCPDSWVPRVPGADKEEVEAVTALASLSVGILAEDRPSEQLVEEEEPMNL

SiHa = test: cells; assay type: functional, cell-based; settings: Homo sapiens
Description: Antiproliferative activity against human SiHa cells assessed as inhibition of cell growth by MTT assay

HL-60 [3] = test: Induction of apoptosis in human HL-60 cells assessed as cell blebbing at 0.5 to 1 times IC50 by DAPI staining based microscopic analysis; assay type: functional
[4] = molecular target: T1, Histone deacetylase 8 (Homo sapiens); test: Inhibition of HDAC8 (unknown origin) assessed as residual activity at 1 x 10^-5M (reference value: 100%); settings: dose 1.0 10^-5M
[5] = molecular target: T3, Polyamine deacetylase HDAC10 (Homo sapiens) (UniProt Q969S8); test: Inhibition of HDAC10 (unknown origin) assessed as residual activity at 1.23 x 10^-7M (reference value: 101.54%); settings: dose 1.23 10^-7M
T3 sequence (whole entry): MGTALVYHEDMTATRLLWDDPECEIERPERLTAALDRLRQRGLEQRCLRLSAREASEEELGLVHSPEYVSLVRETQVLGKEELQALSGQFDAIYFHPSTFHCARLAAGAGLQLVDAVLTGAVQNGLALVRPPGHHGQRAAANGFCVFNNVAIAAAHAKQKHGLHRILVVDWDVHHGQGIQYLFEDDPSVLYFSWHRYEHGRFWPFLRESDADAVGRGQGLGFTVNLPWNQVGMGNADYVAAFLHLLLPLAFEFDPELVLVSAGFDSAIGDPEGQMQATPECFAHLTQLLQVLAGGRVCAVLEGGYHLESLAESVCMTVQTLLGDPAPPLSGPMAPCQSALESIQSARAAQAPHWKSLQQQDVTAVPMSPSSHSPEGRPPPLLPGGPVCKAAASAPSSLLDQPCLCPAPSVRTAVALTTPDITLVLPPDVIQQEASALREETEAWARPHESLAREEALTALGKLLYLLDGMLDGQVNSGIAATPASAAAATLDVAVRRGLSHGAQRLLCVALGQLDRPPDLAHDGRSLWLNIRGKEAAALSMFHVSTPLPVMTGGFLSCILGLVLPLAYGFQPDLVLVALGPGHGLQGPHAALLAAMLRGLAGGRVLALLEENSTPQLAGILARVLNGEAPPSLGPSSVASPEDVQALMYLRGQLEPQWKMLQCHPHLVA

[6] = molecular target: T3, Polyamine deacetylase HDAC10 (Homo sapiens); test: Inhibition of HDAC10 (unknown origin) assessed as residual activity at 3.33 x 10^-6M (reference value: 101.54%); settings: dose 3.33 10^-6M
[7] = molecular target: T2, Histone deacetylase 7 (Homo sapiens); test: Inhibition of HDAC7 (unknown origin) assessed as residual activity at 4.12 x 10^-8M (reference value: 102.66%); settings: dose 4.12 10^-8M
[8] = molecular target: T1, Histone deacetylase 8 (Homo sapiens); test: Inhibition of HDAC8 (unknown origin) assessed as residual activity at 4.57 x 10^-9M (reference value: 100%); settings: dose 4.57 10^-9M
HL-60 [9] = test: Downregulation of PARP-1 protein expression in human HL-60 cells by Western blot analysis; assay type: functional, cell-based
Histone deacetylase 2 = Histone deacetylase 2 (Homo sapiens, UniProt Q92769); test: Inhibition of HDAC2 (unknown origin) assessed as residual activity at 3.33 x 10^-6M (reference value: 99.81%); settings: dose 3.33 10^-6M
Sequence of Histone deacetylase 2 (Q92769 whole entry, the tested form may be a part): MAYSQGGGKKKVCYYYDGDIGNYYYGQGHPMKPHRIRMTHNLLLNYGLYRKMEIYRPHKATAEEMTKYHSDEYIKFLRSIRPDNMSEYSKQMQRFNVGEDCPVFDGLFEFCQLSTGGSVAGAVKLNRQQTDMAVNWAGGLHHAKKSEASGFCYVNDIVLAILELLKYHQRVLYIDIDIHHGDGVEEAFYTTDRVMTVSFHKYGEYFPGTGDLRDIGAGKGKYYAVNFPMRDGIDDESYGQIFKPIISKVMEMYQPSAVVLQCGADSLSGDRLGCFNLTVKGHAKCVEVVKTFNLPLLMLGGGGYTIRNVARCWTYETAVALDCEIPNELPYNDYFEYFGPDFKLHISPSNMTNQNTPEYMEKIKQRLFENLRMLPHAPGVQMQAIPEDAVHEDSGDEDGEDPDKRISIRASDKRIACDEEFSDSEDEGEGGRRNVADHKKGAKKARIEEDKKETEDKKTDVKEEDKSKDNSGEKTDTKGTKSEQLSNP

Histone deacetylase 1 = Histone deacetylase 1 (Homo sapiens, UniProt Q13547); test: Inhibition of HDAC1 (unknown origin) using p53 residues 379 to 382 [RHKK(Ac)] as fluorogenic substrate assessed as residual activity at 1.52 x 10^-9M (reference value: 98.06%); settings: dose 1.52 10^-9M
Sequence of Histone deacetylase 1 (Q13547 whole entry, the tested form may be a part): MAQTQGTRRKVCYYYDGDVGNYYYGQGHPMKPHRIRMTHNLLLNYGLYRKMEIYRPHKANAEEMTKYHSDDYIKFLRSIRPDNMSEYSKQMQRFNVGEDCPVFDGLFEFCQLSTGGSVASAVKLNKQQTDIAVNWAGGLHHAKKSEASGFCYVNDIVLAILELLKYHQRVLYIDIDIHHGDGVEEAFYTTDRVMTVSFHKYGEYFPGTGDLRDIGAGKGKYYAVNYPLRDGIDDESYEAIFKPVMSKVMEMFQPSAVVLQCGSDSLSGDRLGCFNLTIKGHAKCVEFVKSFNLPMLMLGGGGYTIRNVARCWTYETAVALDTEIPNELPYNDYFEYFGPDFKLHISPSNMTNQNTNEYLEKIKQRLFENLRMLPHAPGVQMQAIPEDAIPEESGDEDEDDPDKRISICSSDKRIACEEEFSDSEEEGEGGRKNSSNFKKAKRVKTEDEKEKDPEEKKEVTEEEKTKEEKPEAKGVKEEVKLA

[10] = molecular target: T2, Histone deacetylase 7 (Homo sapiens); test: Inhibition of HDAC7 (unknown origin) assessed as residual activity at 5.08 x 10^-10M (reference value: 102.66%); settings: dose 5.08 10^-10M
[11] = molecular target: Histone deacetylase 4 (Homo sapiens) (UniProt P56524); test: Inhibition of HDAC4 (unknown origin) assessed as residual activity at 3.33 x 10^-6M (reference value: 98.90%); settings: dose 3.33 10^-6M
Sequence of Histone deacetylase 4 (Homo sapiens) (P56524 whole entry): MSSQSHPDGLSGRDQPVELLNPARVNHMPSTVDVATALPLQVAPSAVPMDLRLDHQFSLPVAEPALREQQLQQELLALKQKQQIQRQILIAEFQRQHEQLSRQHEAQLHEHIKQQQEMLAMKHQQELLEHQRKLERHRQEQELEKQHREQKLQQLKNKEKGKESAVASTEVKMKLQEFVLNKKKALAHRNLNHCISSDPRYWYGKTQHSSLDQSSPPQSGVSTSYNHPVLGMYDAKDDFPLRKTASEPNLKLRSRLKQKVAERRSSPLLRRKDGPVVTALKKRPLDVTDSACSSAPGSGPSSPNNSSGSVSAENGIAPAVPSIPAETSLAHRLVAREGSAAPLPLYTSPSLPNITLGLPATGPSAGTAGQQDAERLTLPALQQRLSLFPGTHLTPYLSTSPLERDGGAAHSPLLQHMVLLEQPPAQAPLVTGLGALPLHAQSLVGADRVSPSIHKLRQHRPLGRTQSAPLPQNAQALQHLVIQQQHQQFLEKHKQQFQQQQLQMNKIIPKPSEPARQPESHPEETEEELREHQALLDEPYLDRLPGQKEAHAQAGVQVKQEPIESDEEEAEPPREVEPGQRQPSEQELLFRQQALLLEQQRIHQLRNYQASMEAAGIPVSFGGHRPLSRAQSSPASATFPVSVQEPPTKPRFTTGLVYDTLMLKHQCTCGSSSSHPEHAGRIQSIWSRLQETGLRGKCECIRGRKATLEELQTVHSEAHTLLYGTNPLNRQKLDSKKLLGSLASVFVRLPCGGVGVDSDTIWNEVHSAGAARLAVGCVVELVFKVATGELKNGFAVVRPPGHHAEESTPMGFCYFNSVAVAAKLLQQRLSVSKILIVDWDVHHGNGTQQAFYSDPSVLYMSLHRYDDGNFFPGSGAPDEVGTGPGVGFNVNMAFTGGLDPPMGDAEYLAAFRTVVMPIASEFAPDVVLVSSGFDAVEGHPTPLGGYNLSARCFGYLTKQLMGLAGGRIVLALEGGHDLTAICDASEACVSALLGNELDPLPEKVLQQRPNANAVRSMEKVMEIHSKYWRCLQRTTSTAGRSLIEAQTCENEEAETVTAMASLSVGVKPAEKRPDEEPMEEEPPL

Activity [1]: 107%
Activity [2]: 78.2%
IC50 (SiHa): > 10 µM
Activity [4]: 69.5%
Activity [5]: 101%
Activity [6]: 101%
Activity [7]: 87%
Activity [8]: 103%
Activity (Histone deacetylase 2): 5.75%
Activity (Histone deacetylase 1): 95.5%
Activity [10]: 93.4%
Activity [11]: 94.3%
Structure (SMILES): NC(=O)c1cccc2[nH]c(-c3ccc(NCc4ccc(C(=O)Nc5ccccc5N)cc4)cc3)nc12
Activity (HL-60 [3]): inactive
Activity (HL-60 [9]): Active
